Experiment: Pharmacokinetic assessment of immunosuppressants (blood/plasma trough and AUC)
Type: in vivo, human
Conditions: Non-EVR group, plasma, mean ± SD
Procedure: Sampling was performed at both 1-month and 1-year posttransplantation. The area under the blood (plasma) concentration–time curve (AUC) was then calculated from these serial measurements.

MPA AUC0–12 (at 1-month posttransplantation): 53500 ± 21000 ng·h/mL
MPA AUC0–12 (at 1-year posttransplantation): 51500 ± 20000 ng·h/mL
SMILES: COc1c(C)c2c(c(O)c1C/C=C(\C)CCC(=O)O)C(=O)OC2 [MPA, mycophenolic acid]

Reference: publication PMC13566268, “Everolimus-Involving Immunosuppression Attenuates Renal Interstitial Fibrosis Through Modulation of Mammalian Target of Rapamycin-Related Signal Transduction” (International Journal of Molecular Sciences, 2026)
